# Source: US10399932B2, “Inhibitors of indoleamine-2,3-dioxygenase for the treatment of cancer” (BRISTOL-MYERS SQUIBB COMPANY, priority 2015, dated 2019)
# Biological target: human IDO1 (Homo sapiens, UniProt P14902)
# Experiment: Assessment of human IDO-1 inhibitory activity in HEK cells (human IDO1/HEK293 cells, Ehrlich reagent, absorbance at 490 nm)
# Type: cell-based
# Design: expressed in transfected cells
# Conditions: In Vitro Potency in the HEK Human IDO-1 Cellular Assay
# In short: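 Stable human IDO1-expressing HEK293 cells treated with compound for 20 h at 37 °C in phenol red-free RPMI/10% FBS. Stopped with 0.2% TCA (final) and heated 30 min at 50 °C; supernatant mixed with Ehrlich reagent, absorbance read at 490 nm. IC50 normalised to DMSO (0%) and 500 nM reference standard (100% inhibition).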
# Chain of human IDO1 (P14902 whole entry): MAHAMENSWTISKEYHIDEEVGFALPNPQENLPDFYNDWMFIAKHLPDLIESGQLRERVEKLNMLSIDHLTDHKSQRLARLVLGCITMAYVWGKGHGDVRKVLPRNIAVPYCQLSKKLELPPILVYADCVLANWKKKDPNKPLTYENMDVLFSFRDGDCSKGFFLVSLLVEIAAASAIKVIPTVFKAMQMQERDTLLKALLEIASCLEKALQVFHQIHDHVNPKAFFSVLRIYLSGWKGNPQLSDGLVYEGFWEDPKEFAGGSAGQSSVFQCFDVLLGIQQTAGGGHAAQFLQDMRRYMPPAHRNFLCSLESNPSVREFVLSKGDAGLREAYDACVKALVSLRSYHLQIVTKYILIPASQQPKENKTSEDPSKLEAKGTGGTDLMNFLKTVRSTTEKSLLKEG
row,Compound,IC50
1,"COCC(CC(=O)O)c1ccc(N(CC(C)C)C2CCCCC2)c(NC(=O)Nc2ccc(C)cc2)c1 (single isomer, unassigned) [Example 989-2]",< 5 nM
2,"COCC(CC(=O)O)c1ccc(N(CC(C)C)CC(C)C)c(NC(=O)Nc2ccc(C)cc2)c1 (single isomer, unassigned) [Example 993-2]",< 50 nM
3,"COCC(CC(=O)O)c1ccc(N(CC(C)C)CC(C)C)c(NC(=O)Nc2ccc(Cl)cc2F)c1 (single isomer, unassigned) [Example 995-2]",< 5 nM
4,"COCC(CC(=O)O)c1ccc(N(CC(C)C)CC(C)C)c(NC(=O)Nc2cc(C)on2)c1 (single isomer, unassigned) [Example 999-2]",< 50 nM
5,"Cc1ccc(CC(=O)Nc2cc(C(CC(=O)O)C(C)C)ccc2N(C)C(C)(C)C)cc1 (single isomer, unassigned) [Example 1007-2]",> 50 nM
6,"CC(C)C(CC(=O)O)c1ccc(N(C)C(C)(C)C)c(Nc2nc3ccccc3o2)c1 (single isomer, unassigned) [Example 1008-2]",> 50 nM
7,"CCC(CC(=O)O)c1ccc(N(CC(C)C)CC(C)C)c(NC(=O)Cc2ccc(C#N)cc2)c1 (single isomer, unassigned) [Example 1105, 3-(3-(2-(4-Cyanophenyl)acetamido)-4-(diisobutylamino)phenyl)pentanoic acid]",< 5 nM
8,"CCC(CC(=O)O)c1cc(NC(=O)Nc2ccc(C)cc2)c(N(CC(C)C)C2CCCCC2)cc1F (single isomer, unassigned) [Example 1107, 3-(4-(Cyclohexyl(isobutyl)amino)-2-fluoro-5-(3-(p-tolyl)ureido)phenyl)pentanoic acid]",< 5 nM

# Further lines, results first:
row,IC50,Compound
1,< 5 nM,"CCOc1ccc(NC(=O)Nc2cc(C(CC)CC(=O)O)c(F)cc2N(CC(C)C)C2CCCCC2)cc1 (single isomer, unassigned) [Example 1109, 3-(4-(Cyclohexyl(isobutyl)amino)-5-(3-(4-ethoxyphenyl)ureido)-2-fluorophenyl) pentanoic acid]"
2,< 5 nM,"CCC(CC(=O)O)c1cc(NC(=O)Nc2ccc3c(c2)OCO3)c(N(CC(C)C)C2CCCCC2)cc1F (single isomer, unassigned) [Example 1112, 3-(5-(3-(Benzo[d][1,3]dioxol-5-yl)ureido)-4-(cyclohexyl(isobutyl)amino)-2-fluorophenyl)pentanoic acid]"
3,< 5 nM,"CCC(CC(=O)O)c1cc(NC(=O)Nc2cc(C)no2)c(N(CC(C)C)C2CCCCC2)cc1F (single isomer, unassigned) [Example 1115, 3-(4-(Cyclohexyl(isobutyl)amino)-2-fluoro-5-(3-(3-methylisoxazol-5-yl)ureido)phenyl)pentanoic acid]"
4,< 5 nM,"CCOc1ccc(NC(=O)Nc2cc(C(CC)CC(=O)O)c(F)cc2N(CC(C)C)C2CCCCC2)c(F)c1 (single isomer, unassigned) [Example 1118, 3-(4-(Cyclohexyl(isobutyl)amino)-5-(3-(4-ethoxy-2-fluorophenyl)ureido)-2-fluorophenyl)pentanoic acid]"
5,< 5 nM,"CCC(CC(=O)O)c1cc(NC(=O)Nc2ccc(C)cc2F)c(N(CC(C)C)C2CCCCC2)cc1F (single isomer, unassigned) [Example 1121, 3-(4-(Cyclohexyl(isobutyl)amino)-2-fluoro-5-(3-(2-fluoro-4-methylphenyl)ureido)phenyl)pentanoic acid]"
6,< 5 nM,"CCC(CC(=O)O)c1cc(NC(=O)Nc2cncnc2)c(N(CC(C)C)C2CCCCC2)cc1F (single isomer, unassigned) [Example 1124, 3-(4-(Cyclohexyl(isobutyl)amino)-2-fluoro-5-(3-(pyrimidin-5-yl)ureido)phenyl)pentanoic acid]"
7,< 5 nM,"CCC(CC(=O)O)c1cc(NC(=O)Nc2cnc(C)nc2)c(N(CC(C)C)C2CCCCC2)cc1F (single isomer, unassigned) [Example 1127, 3-(4-(Cyclohexyl(isobutyl)amino)-2-fluoro-5-(3-(2-methylpyrimidin-5-yl)ureido)phenyl)pentanoic acid]"
